Our source for the Ki values is patent publication US20100093722A1, “HETEROARYL AND PHENYL SUBSTITUTED THIENO[2,3-d]PYRIMIDINES AND THEIR USE AS ADENOSINE A2a RECEPTOR ANTAGONISTS” (priority 2008, published 2010).

Molecules are shown by their SMILES. Bounds are passed on as bounds.

In assay [1] the target is T1, human adenosine A2a receptor (Homo sapiens, UniProt P29274).
T1 construct: expressed in transfected cells; host or cells: CHO-K1
The assay can be described thus: Adenosine A2a Receptor Functional Assay (A2AGAL2). The assay is classed as cell-based. Conditions: CHO-K1 cells overexpressing human A2a, cAMP inducible beta-galactosidase reporter, 15 nM NECA agonist challenge. The procedure: Adenosine A2a Receptor Functional Assay (A2AGAL2)
To initiate the functional assay, cryopreserved CHO-K1 cells overexpressing the human adenosine A2a receptor and containing a cAMP inducible beta-galactosidase reporter gene were thawed, centrifuged, DMSO containing media removed, and then seeded with fresh culture media into clear 384-well tissue culture treated plates (BD #353961) at a concentration of 10K cells/well. Prior to assay, these plates were cultured for two days at 37° C., 5% CO2, 90% Rh. On the day of the functional assay, culture media was removed and replaced with 45 uL assay medium (Hams/F-12 Modified (Mediatech #10-080CV) supplemented w/0.1% BSA). Test compounds were diluted and 11 point curves created at a 1000× concentration in 100% DMSO. Immediately after addition of assay media to the cell plates, 50 nL of the appropriate test compound antagonist or agonist control curves were added to cell plates using a Cartesian Hummingbird. Compound curves were allowed to incubate at room temperature on cell plates for approximately 15 minutes before addition of a 15 nM NECA (Sigma E2387) agonist challenge (5 uL volume). A control curve of NECA, a DMSO/Media control, and a single dose of Forskolin (Sigma F3917) were also included on each plate. After additions, cell plates were allowed to incubate at 37° C., 5% CO2, 90% Rh for 5.5-6 hours. After incubation, media was removed, and cell plates were washed 1× 50 uL with DPBS w/o Ca & Mg (Mediatech 21-031-CV). Into dry wells, 20 uL of 1× Reporter Lysis Buffer (Promega E3971 (diluted in dH2O from 5× stock)) was added to each well and plates frozen at −20° C. overnight. For β-galactosidase enzyme calorimetric assay, plates were thawed out at room temperature and 20 μL 2× assay buffer (Promega) was added to each well. Color was allowed to develop at 37° C., 5% CO2, 90% Rh for 1-1.5 h or until reasonable signal appeared. The calorimetric reaction was stopped with the addition of 60 μL/well 1M sodium carbonate. Plates were counted at 405 nm on a SpectraMax Microplate Reader (Molecular Devices). Data was analyzed in Microsoft Excel and IC/EC50 curves were fit using a standardized macro.

Assay [2] addresses T2, human adenosine A1 receptor (Homo sapiens, UniProt P30542).
T2 construct: expressed in transfected cells; host or cells: CHO-K1
T2 sequence (P30542 1-326): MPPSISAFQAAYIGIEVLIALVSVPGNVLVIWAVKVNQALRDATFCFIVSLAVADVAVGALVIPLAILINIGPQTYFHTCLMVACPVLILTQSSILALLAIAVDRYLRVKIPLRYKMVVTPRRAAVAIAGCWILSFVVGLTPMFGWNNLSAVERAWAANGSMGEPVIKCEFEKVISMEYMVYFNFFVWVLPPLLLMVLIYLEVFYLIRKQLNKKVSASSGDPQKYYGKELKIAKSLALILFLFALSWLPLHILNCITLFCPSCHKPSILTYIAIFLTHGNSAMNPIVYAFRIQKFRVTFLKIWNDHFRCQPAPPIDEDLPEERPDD
Description: Adenosine A1 Receptor Functional Assay (A1GAL2). The assay is classed as cell-based. Conditions: CHO-K1 cells overexpressing human A1, cAMP inducible beta-galactosidase reporter, 4 nM r-PIA/1 uM Forskolin challenge. The procedure:
Adenosine A1 Receptor Functional Assay (A1GAL2)
To initiate the functional assay, cryopreserved CHO-K1 cells overexpressing the human adenosine A1 receptor and containing a cAMP inducible beta-galactosidase reporter gene were thawed, centrifuged, DMSO containing media removed, and then seeded with fresh culture media into clear 384-well tissue culture treated plates (BD #353961) at a concentration of 10K cells/well. Prior to assay, these plates were cultured for two days at 37+ C., 5% CO2, 90% Rh. On the day of the functional assay, culture media was removed and replaced with 45 uL assay medium (Hams/F-12 Modified (Mediatech #10-080CV) supplemented w/0.1% BSA). Test compounds were diluted and 11 point curves created at a 1000× concentration in 100% DMSO. Immediately after addition of assay media to the cell plates, 50 nL of the appropriate test compound antagonist or agonist control curves were added to cell plates using a Cartesian Hummingbird. Compound curves were allowed to incubate at room temperature on cell plates for approximately 15 minutes before addition of a 4 nM r-PIA (Sigma P4532)/1 uM Forskolin (Sigma F3917) agonist challenge (5 uL volume). A control curve of r-PIA in 1 uM Forskolin, a DMSO/Media control, and a single dose of Forskolin were also included on each plate. After additions, cell plates were allowed to incubate at 37° C., 5% CO2, 90% Rh for 5.5-6 hours. After incubation, media was removed, and cell plates were washed 1× 50 uL with DPBS w/o Ca & Mg (Mediatech 21-031-CV). Into dry wells, 20 uL of 1× Reporter Lysis Buffer (Promega E3971 (diluted in dH2O from 5× stock)) was added to each well and plates frozen at −20° C. overnight. For β-galactosidase enzyme calorimetric assay, plates were thawed out at room temperature and 20 μL 2× assay buffer (Promega) was added to each well. Color was allowed to develop at 37° C., 5% CO2, 90% Rh for 1-1.5 h or until reasonable signal appeared. The calorimetric reaction was stopped with the addition of 60 μL/well 1M sodium carbonate. Plates were counted at 405 nm on a SpectraMax Microplate Reader (Molecular Devices). Data was analyzed in Microsoft Excel and IC/EC50 curves were fit using a standardized macro.

Usually Ki stands for a dissociation constant, usually derived from enzyme kinetics or from competition with a known ligand. Read a low Ki as tighter binding.

T1 sequence (P29274 whole entry): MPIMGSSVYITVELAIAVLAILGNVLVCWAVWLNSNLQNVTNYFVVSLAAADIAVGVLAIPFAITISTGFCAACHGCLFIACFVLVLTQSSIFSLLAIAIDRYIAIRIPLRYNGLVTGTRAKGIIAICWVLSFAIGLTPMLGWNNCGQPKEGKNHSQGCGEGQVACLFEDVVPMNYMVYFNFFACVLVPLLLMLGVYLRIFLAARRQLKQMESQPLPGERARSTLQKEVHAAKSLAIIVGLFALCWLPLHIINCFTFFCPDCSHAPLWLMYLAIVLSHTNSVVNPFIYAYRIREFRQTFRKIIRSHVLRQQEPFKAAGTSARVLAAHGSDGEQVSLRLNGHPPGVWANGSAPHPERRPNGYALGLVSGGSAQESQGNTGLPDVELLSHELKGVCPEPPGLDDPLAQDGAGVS

In the case of `N#Cc1cccc(-c2nc(N)c3cc(CCc4ccccn4)sc3n2)c1` [Example 2, 3-[4-Amino-6-(2-pyridin-2-yl-ethyl)-thieno[2,3-d]pyrimidin-2-yl]-benzonitrile], the results for the Ki in assay [1] and in assay [2] were 79.2 nM and 468 nM, respectively.
The corresponding values for `Nc1nc(-c2ccccc2)nc2sc(Cc3ccc(Cl)nc3)cc12` [Example 3, 6-(6-Chloro-pyridin-3-ylmethyl)-2-phenyl-thieno[2,3-d]pyrimidin-4-ylamine] are 47.2 nM and 438 nM.
For `COc1cccc(C(O)c2cc3c(N)nc(-c4cccc(C#N)c4)nc3s2)n1` (centres unmarked) [Example 11, 3-{4-Amino-6-[hydroxy-(6-methoxy-pyridin-2-yl)-methyl]-thieno[2,3-d]pyrimidin-2-yl}-benzonitrile], in that order: 29.3 nM and 153 nM.
For `N#Cc1cccc(-c2nc(N)c3cc(C(O)c4ccc(N5CCCCC5)nc4)sc3n2)c1` (centres unmarked) [Example 12, 3-{4-Amino-6-[hydroxy-(3,4,5,6-tetrahydro-2H-[1,2′]bipyridinyl-5′-yl)-methyl]-thieno[2,3-d]pyrimidin-2-yl}-benzonitrile], in that order: 201 nM and 1280 nM.
For the compound `N#Cc1cccc(-c2nc(N)c3cc(C(O)c4cccnc4N4CCOCC4)sc3n2)c1` (centres unmarked) [Example 13, 3-{4-Amino-6-[hydroxy-(2-morpholin-4-yl-pyridin-3-yl)-methyl]-thieno[2,3-d]pyrimidin-2-yl}-benzonitrile], the Ki in assay [1] is 171 nM; in assay [2], 445 nM.
For `N#Cc1cccc(-c2nc(N)c3cc(C(O)c4cccnc4N4CCCC4)sc3n2)c1` (centres unmarked) [Example 14, 3-{4-Amino-6-[hydroxy-(2-pyrrolidin-1-yl-pyridin-3-yl)-methyl]-thieno[2,3-d]pyrimidin-2-yl}-benzonitrile], in that order: 1040 nM and 1290 nM.
Turning to `Nc1nc(-c2ccccc2)nc2sc(Cc3ccccn3)cc12` [Example 16, 2-Phenyl-6-pyridin-2-ylmethyl-thieno[2,3-d]pyrimidin-4-ylamine], the values for the Ki in assay [1] and in assay [2] were 5.71 nM and 48.7 nM, respectively.
Regarding `N#Cc1cccc(-c2nc(N)c3cc(C(O)c4cccnc4N4CCCCC4)sc3n2)c1` (centres unmarked) [Example 17, 3-{4-Amino-6-[hydroxy-(3,4,5,6-tetrahydro-2H-[1,2′]bipyridinyl-3′-yl)-methyl]-thieno[2,3-d]pyrimidin-2-yl}-benzonitrile], the inhibitory constant (Ki) in assay [1] stood at 32 nM; in assay [2], 277 nM.
With `N#Cc1cccc(-c2nc(N)c3cc(Cc4cccnc4N4CCCCC4)sc3n2)c1` [Example 20, 3-[4-Amino-6-(3,4,5,6-tetrahydro-2H-[1,2′]bipyridinyl-3′-ylmethyl)-thieno[2,3-d]pyrimidin-2-yl]-benzonitrile], the Ki in assay [1] was found to be 45.3 nM; in assay [2], 292 nM.
The corresponding values for `N#Cc1cccc(-c2nc(N)c3cc(Cc4ccncc4Cl)sc3n2)c1` [Example 22, 3-[4-Amino-6-(3-chloro-pyridin-4-ylmethyl)-thieno[2,3-d]pyrimidin-2-yl]-benzonitrile] are 25.3 nM and > 610 nM.
The corresponding values for `N#Cc1cccc(-c2nc(N)c3cc(Cc4cccnc4N4CCOCC4)sc3n2)c1` [Example 27, 3-[4-Amino-6-(2-morpholin-4-yl-pyridin-3-ylmethyl)-thieno[2,3-d]pyrimidin-2-yl]-benzonitrile] are 39.8 nM and 592 nM.
For `N#Cc1cccc(-c2nc(N)c3cc(C(O)c4ccncc4)sc3n2)c1` (centres unmarked) [Example 28, 3-[4-Amino-6-(hydroxy-pyridin-4-yl-methyl)-thieno[2,3-d]pyrimidin-2-yl]-benzonitrile], the figures for the inhibitory constant (Ki) in assay [1] and in assay [2] were 87.5 nM and 787 nM, respectively.
The corresponding values for `N#Cc1cccc(-c2nc(N)c3cc(C(O)c4cccnc4F)sc3n2)c1` (centres unmarked) [Example 29, 3-{4-Amino-6-[(2-fluoro-pyridin-3-yl)-hydroxy-methyl]-thieno[2,3-d]pyrimidin-2-yl}-benzonitrile] are 5.09 nM and 145 nM.
For `N#Cc1cccc(-c2nc(N)c3cc(C(O)c4cccnc4)sc3n2)c1` (centres unmarked) [Example 31, 3-[4-Amino-6-(hydroxy-pyridin-3-yl-methyl)-thieno[2,3-d]pyrimidin-2-yl]-benzonitrile], in that order: 16 nM and 285 nM.
The corresponding values for `N#Cc1cccc(-c2nc(N)c3cc(Cc4cccnc4)sc3n2)c1` [Example 32, 3-(4-Amino-6-pyridin-3-ylmethyl-thieno[2,3-d]pyrimidin-2-yl)-benzonitrile] are 17.6 nM and 408 nM.
On to `COc1ccc(C(O)c2cc3c(N)nc(-c4cccc(C#N)c4)nc3s2)cn1` (centres unmarked) [Example 36, 3-{4-Amino-6-[hydroxy-(6-methoxy-pyridin-3-yl)-methyl]-thieno[2,3-d]pyrimidin-2-yl}-benzonitrile], for which the inhibition constant (Ki) in assay [1] came to 156 nM; in assay [2], 726 nM.
For `COc1ccc(Cc2cc3c(N)nc(-c4cccc(C#N)c4)nc3s2)cn1` [Example 37, 3-[4-Amino-6-(6-methoxy-pyridin-3-ylmethyl)-thieno[2,3-d]pyrimidin-2-yl]-benzonitrile], in that order: 64.3 nM and 507 nM.
The corresponding values for `COc1ncccc1C(=O)c1cc2c(N)nc(-c3cccc(C#N)c3)nc2s1` [Example 39, 3-[4-Amino-6-(2-methoxy-pyridine-3-carbonyl)-thieno[2,3-d]pyrimidin-2-yl]-benzonitrile] are 53 nM and 289 nM.
For `Nc1nc(-c2cccc(F)c2)nc2sc(Cc3ccc(Cl)nc3)cc12` [Example 40, 6-(6-Chloro-pyridin-3-ylmethyl)-2-(3-fluoro-phenyl)-thieno[2,3-d]pyrimidin-4-ylamine], in that order: 442 nM and 443 nM.
